Test results reported in US12109305B2, “Materials architecture for gastric residence systems” (Lyndra Therapeutics, Inc., priority 2016, dated 2024).

Test: Degradation of time-dependent coupling polymer components in simulated gastric fluid
Format: physicochemical
Details: seven days
From the text: Additional preferred polymers for use as coupling polymers are time-dependent polymers, that is, polymers that degrade in a time-dependent manner in the gastric environment.

For `CC(=O)OCC(COC(C)=O)OC(C)=O` [triacetin], the “degradation / retention of strength in simulated gastric fluid” value was “degrades in a time-dependent manner”.
